The values that follow come from patent US20260217708A1, “FUSED BENZAZEPINE DERIVATIVES FOR USE IN THE TREATMENT OF CANCER AND EPILEPSY” (UCB BIOPHARMA SRL, priority 2023, published 2026).

Where only a bound is given, the exact number is not on record here.

Experiment [1] concerns the target T1, system Xc^− (Homo sapiens, UniProt Q9UPY5).
T1 sequence (Q9UPY5 1-501): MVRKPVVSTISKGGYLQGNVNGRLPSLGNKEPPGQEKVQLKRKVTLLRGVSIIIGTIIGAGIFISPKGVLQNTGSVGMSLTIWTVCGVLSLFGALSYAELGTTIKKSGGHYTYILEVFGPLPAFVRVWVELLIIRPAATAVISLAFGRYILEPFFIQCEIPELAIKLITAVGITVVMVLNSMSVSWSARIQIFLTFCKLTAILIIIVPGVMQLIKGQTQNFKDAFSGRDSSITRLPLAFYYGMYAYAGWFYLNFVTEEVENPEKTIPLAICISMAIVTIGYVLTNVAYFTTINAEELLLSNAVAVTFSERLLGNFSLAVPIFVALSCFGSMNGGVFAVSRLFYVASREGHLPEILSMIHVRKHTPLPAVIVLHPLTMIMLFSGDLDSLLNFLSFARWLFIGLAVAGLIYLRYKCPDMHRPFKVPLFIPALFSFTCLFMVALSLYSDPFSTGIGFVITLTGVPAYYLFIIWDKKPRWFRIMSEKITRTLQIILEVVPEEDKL
T1 sequence (P08195 1-529 partner): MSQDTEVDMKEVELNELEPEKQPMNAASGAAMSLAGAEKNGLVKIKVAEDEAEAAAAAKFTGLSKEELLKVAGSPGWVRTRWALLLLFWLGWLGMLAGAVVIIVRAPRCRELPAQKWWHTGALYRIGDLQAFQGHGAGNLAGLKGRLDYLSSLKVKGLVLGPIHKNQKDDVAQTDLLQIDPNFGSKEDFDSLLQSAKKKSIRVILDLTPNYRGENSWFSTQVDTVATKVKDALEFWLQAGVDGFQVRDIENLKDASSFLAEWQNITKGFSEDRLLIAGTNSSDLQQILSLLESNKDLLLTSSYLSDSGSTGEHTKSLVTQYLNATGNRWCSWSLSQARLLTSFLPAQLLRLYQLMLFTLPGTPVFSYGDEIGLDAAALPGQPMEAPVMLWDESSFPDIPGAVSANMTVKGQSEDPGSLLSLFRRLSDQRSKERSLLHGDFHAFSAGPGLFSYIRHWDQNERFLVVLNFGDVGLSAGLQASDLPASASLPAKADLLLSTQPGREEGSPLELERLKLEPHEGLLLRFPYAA
Briefly: Cystine-induced glutamate release assay. It is filed as cell-based. Set-up: endogenous in cells; host or cells: H4 cells. The conditions noted are these: H4 cells, sodium-free HEPES buffer, 50 μM L-Cystine, 2 hours, Amplex Red glutamate readout; read-out: pIC50 Cystine-induced glutamate release assay (converted). In a few lines: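 IC50 (reported as pIC50) normalized to DMSO 1% and Erastin 50 μM controls, from Amplex Red fluorescence of glutamate exported into supernatant. H4 cells were washed into sodium-free buffer to exclude EAAT transport, then given compound with 50 μM L-cystine for 2 h in the incubator.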

Experiment [2] concerns the target T1, system Xc^−. The experiment is described as follows: [^14C]L-Cystine uptake assay. Further details: endogenous in cells; host or cells: H4 cells. The format is cell-based. As to conditions: H4 cells, sodium-free HEPES buffer, 0.5 μM L-[14C]Cystine and 4.5 μM L-Cystine, 1 hour at 37° C.; read-out: pIC50 [^14C] L-Cystine uptake assay (converted). In a few lines: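 Compound effect is given as pIC50, taken between controls of 1% DMSO and 50 μM Erastin. Human H4 cells were pretreated 15 min with compound in sodium-free buffer, then took up 0.5 μM [14C]cystine with 4.5 μM cold cystine for 1 hour at 37° C, read by scintillation proximity counting.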

As to `CC1C(=O)N(CC(=O)Nc2ccc(C(F)F)cc2)c2cc(N3CC4(C3)CC4(F)F)nc(F)c2-c2cccnc21` (single isomer, unassigned) [#286, 2-[5-(2,2-difluoro-5-azaspiro[2.3]hexan-5-yl)-3-fluoro-10-methyl-9-oxo-4,8,12-triazatricyclo[9.4.0.0^2,7]pentadeca-1(15),2,4,6,11,13-hexaen-8-yl]-N-[4-(difluoromethyl)phenyl]acetamide], the IC50 at system Xc^− [1] and at system Xc^− [2] was less than 15.8 nM throughout.

Turning to `Cc1cc2c(c(=O)n1C)-c1ccnn1C(C)C(=O)N2CC(=O)Nc1ccc(C(F)F)cc1` (single isomer, unassigned) [#358, N-[4-(difluoromethyl)phenyl]-2-[7,12,13-trimethyl-8,14-dioxo-5,6,9,13-tetrazatricyclo[8.4.0.0^2,6]tetradeca-1(10),2,4,11-tetraen-9-yl]acetamide], the IC50 on system Xc^− [1] is 15.8 to 39.8 nM; at system Xc^− [2], 100 to 501 nM.

Turning to `COc1cc2c(c(F)n1)-c1cc(F)cnc1C(C)C(=O)N2CC(=O)Nc1ccc(Cl)c(F)c1` (single isomer, unassigned) [#403, N-(4-chloro-3-fluoro-phenyl)-2-[3,14-difluoro-5-methoxy-10-methyl-9-oxo-4,8,12-triazatricyclo[9.4.0.0^2,7]pentadeca-1(11),2(7),3,5,12,14-hexaen-8-yl]acetamide], the IC50 at system Xc^− [1] and on system Xc^− [2] was less than 15.8 nM each time.

With `COc1nccc2c1-c1cccnc1C(C)C(=O)N2CC(=O)Nc1ccc(C(F)F)cc1` (single isomer, unassigned) [#298, N-[4-(difluoromethyl)phenyl]-2-[3-methoxy-10-methyl-9-oxo-4,8,12-triazatricyclo[9.4.0.0^2,7]pentadeca-1(15),2(7),3,5,11,13-hexaen-8-yl]acetamide], the IC50 on system Xc^− [1] and on system Xc^− [2] was less than 15.8 nM throughout.

Regarding `Cc1cc2c(c(Cl)n1)-c1cccnc1[C@@H](C)C(=O)N2CC(=O)Nc1ccc(C(F)(F)F)cc1` (single isomer, unassigned) [#197, Enantiomer (10R) or (10S) of 2-[3-chloro-5,10-dimethyl-9-oxo-4,8,12-triazatricyclo[9.4.0.0^2,7]pentadeca-1(11),2,4,6,12,14-hexaen-8-yl]-N-[4-(trifluoromethyl)phenyl]acetamide], the IC50 at system Xc^− [1] and at system Xc^− [2] was less than 15.8 nM throughout.

Take `O=C(CN1C(=O)Cc2ccccc2-c2cnc(N3CC(F)(F)C3)cc21)Nc1ccc(C(F)(F)F)cc1` [#47, 2-[3-(3,3-difluoroazetidin-1-v)-6-oxo-7H-pyrido[4,3-d][3]benzazepin-5-yl]-N-[4-(trifluoromethyl)phenyl]acetamide]: the IC50 on system Xc^− [1] is 39.8 to 100 nM; at system Xc^− [2], 15.8 to 39.8 nM.

Take `Cc1cc2c(c(C)n1)-c1ccccc1CC(=O)N2CC(=O)Nc1ccc(C(F)(F)F)cc1` [#27, 2-(1,3-dimethyl-6-oxo-7H-pyrido[4,3-d][3]benzazepin-5-yl)-N-[4-(trifluoromethyl)phenyl]acetamide]: the IC50 at system Xc^− [1] was 15.8 to 39.8 nM; on system Xc^− [2], less than 15.8 nM.

As for `Cc1cc2c(c(F)n1)-c1cccnc1[C@@H](C)C(=O)N2CC(=O)Nc1ccc(C(C)(F)F)cc1` [#149, N-[4-(1,1-difluoroethyl)phenyl]-2-[(10R)-3-fluoro-5,10-dimethyl-9-oxo-4,8,12-triazatricyclo[9.4.0.0^2,7]pentadeca-1(11),2(7),3,5,12,14-hexaen-8-yl]acetamide], the IC50 on system Xc^− [1] is 15.8 to 39.8 nM; at system Xc^− [2], less than 15.8 nM.

For `Cc1cc2c(c(F)n1)-c1ncc(F)cc1CC(=O)N2CC(=O)Nc1ccc(Cl)c(F)c1` [#417, N-(4-chloro-3-fluoro-phenyl)-2-(5,15-difluoro-13-methyl-9-oxo-3,10,14-triazatricyclo[9.4.0.0^2,7]pentadeca-1(11),2,4,6,12,14-hexaen-10-yl)acetamide], the IC50 on system Xc^− [1] is 39.8 to 100 nM; at system Xc^− [2], 15.8 to 39.8 nM.

As to `COc1cc(F)c2c(c1)N(CC(=O)Nc1ccc(C(F)F)cc1)C(=O)C(C)c1ncccc1-2` (single isomer, unassigned) [#315, N-[4-(difluoromethyl)phenyl]-2-[11-fluoro-9-methoxy-5-methyl-6-oxo-5H-pyrido[2,3-d][1]benzazepin-7-yl]acetamide], the IC50 on system Xc^− [1] and on system Xc^− [2] was less than 15.8 nM each time.

As for `CC1C(=O)N(CC(=O)Nc2ccc(Cl)c(F)c2)c2cc(OCCO)nc(F)c2-c2cccnc21` (stereo not drawn) [#375, N-(4-chloro-3-fluoro-phenyl)-2-[3-fluoro-5-(2-hydroxyethoxy)-10-methyl-9-oxo-4,8,12-triazatricyclo[9.4.0.0^2,7]pentadeca-1(15),2,4,6,11,13-hexaen-8-yl]acetamide], the IC50 on system Xc^− [1] and at system Xc^− [2] was less than 15.8 nM in each case.

As to `Cc1cc2c(c(F)n1)-c1ccnnc1C(C)C(=O)N2CC(=O)Nc1ccc(C(F)(F)F)cc1` (stereo not drawn) [#172, 2-(3-fluoro-5,10-dimethyl-9-oxo-4,8,12,13-tetrazatricyclo[9.4.0.0^2,7]pentadeca-1(11),2(7),3,5,12,14-hexaen-8-yl)-N-[4-(trifluoromethyl)phenyl]acetamide], the IC50 on system Xc^− [1] and on system Xc^− [2] was 15.8 to 39.8 nM in each case.

Regarding `Cc1cc2c(c(F)n1)-c1ncccc1CC(=O)N2CC(=O)Nc1ccc(C(F)(F)F)cc1` [#38, 2-(15-fluoro-13-methyl-9-oxo-3,10,14-triazatricyclo[9.4.0.0^2,7]pentadeca-1(11),2(7),3,5,12,14-hexaen-10-yl)-N-[4-(trifluoromethyl)phenyl]acetamide], the IC50 at system Xc^− [1] and at system Xc^− [2] was 100 to 501 nM each time.

For the compound `Cc1cc2c(c(F)n1)-c1cccnc1[C@@H](O)C(=O)N2CC(=O)Nc1ccc(C(F)(F)F)cc1` (single isomer, unassigned) [#211, Enantiomer (10S) or (10R) of 2-[3-fluoro-10-hydroxy-5-methyl-9-oxo-4,8,12-triazatricyclo[9.4.0.0^2,7]pentadeca-1(11),2(7),3,5,12,14-hexaen-8-yl]-N-[4-(trifluoromethyl)phenyl]acetamide], the IC50 on system Xc^− [1] is less than 15.8 nM; on system Xc^− [2], 15.8 to 39.8 nM.

In the case of `CC1C(=O)N(CC(=O)Nc2ccc(Cl)c(F)c2)c2cc(C3CC3)c(=O)n(C)c2-c2ccccc21` (stereo not drawn) [#321, N-(4-chloro-3-fluoro-phenyl)-2-(3-cyclopropyl-1,7-dimethyl-2,6-dioxo-7H-pyrido[3,2-d][3]benzazepin-5-yl)acetamide], the IC50 at system Xc^− [1] and at system Xc^− [2] was 15.8 to 39.8 nM throughout.

Regarding `CC1C(=O)N(CC(=O)Nc2ccc(C(F)F)cc2)c2cc(Cl)nc(Cl)c2-c2cccnc21` (stereo not drawn) [#395, 2-(3,5-dichloro-10-methyl-9-oxo-4,8,12-triazatricyclo[9.4.0.0^2,7]pentadeca-1(11),2(7),3,5,12,14-hexaen-8-yl)-N-[4-(difluoromethyl)phenyl]acetamide], the IC50 is 15.8 to 39.8 nM at system Xc^− [1] and 39.8 to 100 nM on system Xc^− [2].

Regarding `CCn1c(C)cc2c(c1=O)-c1cccnc1[C@@H](C)C(=O)N2CC(=O)Nc1ccc(Cl)c(F)c1` (single isomer, unassigned) [#176, Enantiomer (10R) or (10S) of N-(4-chloro-3-fluoro-phenyl)-2-[4-ethyl-5,10-dimethyl-3,9-dioxo-4,8,12-triazatricyclo[9.4.0.0^2,7]pentadeca-1(15),2(7),5,11,13-pentaen-8-yl]acetamide], the IC50 on system Xc^− [1] and on system Xc^− [2] was less than 15.8 nM in each case.

For the compound `Cc1cc2c(n(C)c1=O)-c1cccnc1C(C)C(=O)N2CC(=O)Nc1ccc(C(F)(F)F)cc1` (stereo not drawn) [#119, N-[4-(trifluoromethyl)phenyl]-2-(3,5,10-trimethyl-4,9-dioxo-3,8,12-triazatricyclo[9.4.0.0^2,7]pentadeca-1(11),2(7),5,12,14-pentaen-8-yl)acetamide], the IC50 on system Xc^− [1] and at system Xc^− [2] was 15.8 to 39.8 nM throughout.
